Assay results taken from patent US11021464B2, “Crystalline forms of 4-(tert-butoxyamino)-6-(6-(trifluoromethyl)pyridin-2-yl)-N-(2-(trifluoromethyl)pyridin-4-yl)-1,3,5-triazin-2-amine methanesulfonic acid salt” (CHIA TAI TIANQING PHARMACEUTICAL GROUP CO., LTD., priority 2017, dated 2021).
Read-outs that look alike come from different tables or passages of the source.

Key:
[1] = Hygroscopicity test of various salts (Chinese Pharmacopoeia 2010, Part II, Appendix XIX J); assay type: physicochemical; conditions: HR = 80% ± 2
Experimental: The various acid addition salts of the compound of Formula I were tested according to “Guiding Principles for Drug Hygroscopicity Test” described in the Chinese Pharmacopoeia, 2010 edition, Part II, Appendix XIX J. The increased weights by hygroscopy of the samples were calculated respectively, and the results are shown in Table 11.

[2] = Stability test of various salts, high temperature and high humidity (Chinese Pharmacopoeia 2010, Part II, Appendix XIX C); assay type: physicochemical; conditions: for Purity before test: before high temperature and high humidity test
Experimental: The stability of the various acid addition salts of the compound of Formula I were tested according to the method described in the Chinese Pharmacopoeia, 2010 edition, Part II, Appendix XIX C.

[3] = Pharmacokinetic test in SD rats, intragastric 50 mg/kg of salts and crystalline forms; assay type: in vivo; conditions: 50 mg/kg (in free base)
Experimental: Number and gender: 20, males;
Twenty male SPF SD rats were randomly divided into 4 groups, fasted (free access to water) overnight, and then intragastrically administered with 50 mg/kg of the crystalline Form I of the mesylate of the compound of Formula I (Example 11), 50 mg/kg of the crystalline Form II of the mesylate of the compound of Formula I (Example 12), 50 mg/kg of the crystalline Form VIII of the mesylate of the compound of Formula I (Example 19) and 50 mg/kg of the hydrochloride salt of the compound of Formula I (Example 7), respectively (in basic group). Blood samples (0.2˜0.3 mL) were taken from the orbital of the rats at the blood collection time points 0.25 h, 0.5 h, 1 h, 2 h, 3 h, 4 h, 6 h, 8 h, 10 h, 24 h, 30 h and 48 h after administration. The whole blood collected was then placed in EDTA-K2 centrifuge tubes, stored at 4° C., and centrifuged for 10 min at a speed of 4000 rpm at 4° C. within 0.5 h to separate plasma. After the collection of all the plasma, it was stored at −20° C. within 1 h. Pharmacokinetic parameters (PK parameters) were calculated using DAS 3.2.1 software according to the non-compartment statistical moment theory, and the results are shown in Table 15.

IDH2 (R172K, 40-end) = molecular target: T1, IDH2 (R172K, 40-end) (Homo sapiens, UniProt P48735, R172K); test: Inhibitory activity test against IDH2 (NADPH decrease, diaphorase/resazurin fluorescence); assay type: biochemical
T1 sequence (P48735 40-452 R172K): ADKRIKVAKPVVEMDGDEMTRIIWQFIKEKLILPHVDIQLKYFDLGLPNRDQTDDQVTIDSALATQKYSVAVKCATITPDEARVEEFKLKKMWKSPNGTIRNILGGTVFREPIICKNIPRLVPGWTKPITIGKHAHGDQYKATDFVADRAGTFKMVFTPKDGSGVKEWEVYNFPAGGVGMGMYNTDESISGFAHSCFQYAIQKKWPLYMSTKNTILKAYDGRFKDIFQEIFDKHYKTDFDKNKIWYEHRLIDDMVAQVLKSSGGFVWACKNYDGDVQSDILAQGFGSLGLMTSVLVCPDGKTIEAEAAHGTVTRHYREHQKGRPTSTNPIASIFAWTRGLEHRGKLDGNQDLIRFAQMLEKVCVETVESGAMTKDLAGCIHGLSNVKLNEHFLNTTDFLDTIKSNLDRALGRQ
Experimental: The inhibitory activity of the compound of the present application against IDH2 (R172K, 40-end) was determined by using the following method.
The inhibitory activity of a compound against IDH2 (R172K, 40-end) was determined by the decrease of a helper factor NADPH (reduced coenzyme II). The test compound was pre-incubated with an enzyme and NADPH, and then a reaction was initiated by the addition of a-KG, and performed for 120 minutes under a linear condition. Then, the reaction was terminated by the addition of diaphorase (lipoamide dehydrogenase) and the corresponding substrate resazurin. Diaphorase terminated the IDH2m reaction by decreasing the available helper factor NADPH, which oxidized NADPH to NADP (oxidized coenzyme II), and reduced resazurin to highly fluorescent resorufin. The amount of remaining helper factor NADPH after a specific reaction time was quantified via an easily detectable fluorophore.
Specifically, 2.5 μl of a 3-fold gradient diluted test compound was added to a 384-well plate, and then 5 μl of a reaction buffer (20 mM Tris-HCl, PH7.5; 150 mM NaCl; 10 mM MgCl2; 10 mM MnCl2; 0.4 mg/ml BSA and 2 mM DTT) containing 80 nM IDH2 (R172K, 40-end) and 40 μM NADPH was added. Then, the resulting test mixture was incubated for 120 minutes at a temperature of 23° C., and then 2.5 μl of the reaction buffer containing 4 mM a-KG was added to initiate the reaction. After incubating for 120 minutes at room temperature, 5 μl of a termination mixture (0.4 U/ml diaphorase and 40 μM resazurin) prepared with the reaction buffer was added to convert resazurin to resorufin to determine the remaining NADPH.

[4] = tested on: relapsed and refractory AML; conditions: cited from earlier work
[5] = Pharmacokinetic test in rats, single intragastric dose of 5 mg/kg; assay type: in vivo; conditions: male rats
Experimental: Healthy male adult rats (7-9 weeks old) were used, each group of animals (3 male rats) was intragastrically administered once at a single dose of 5 mg/kg. The animals in the intragastric administration group were fasted overnight before this study. The fasting time period was from 10 hours before administration to 4 hours after administration.
Blood samples were taken at 0.25, 0.5, 1, 2, 4, 6, 8 and 24 h after administration. The animals were anesthetized with isoflurane using a small animal anesthesia machine, and then 0.3 mL whole blood samples were taken from the fundus venous plexus. The blood samples were placed in heparin anticoagulant tubes, and centrifuged for 5 min at 4° C. and 4000 rpm. The resulting plasma samples were transferred to centrifuge tubes, and stored at −80° C. until analysis.
Verified liquid chromatography-tandem mass spectrometry (LC-MS/MS) method was used to analyze the plasma samples. Plasma concentration-time data of individual animals were analyzed using WinNonlin (Professional Edition, version 6.3; Pharsight Company) software. The non-compartmental model was introduced for concentration analysis. The pharmacokinetic parameters (PK parameters) of the compounds were calculated.

[6] = listed as The crystalline Form VIII of the mesylate of the compound of Formula I, 50 mg/kg
[7] = male, SD, rat, plasma, po, 50 mg/kg
[8] = listed as The crystalline Form II of the mesylate of the compound of Formula I, 50 mg/kg

For `CC(C)(C)ONc1nc(Nc2ccnc(C(F)(F)F)c2)nc(-c2cccc(C(F)(F)F)n2)n1.CS(=O)(=O)O` [4-(tert-butoxyamino)-6-(6-(trifluoromethyl)pyridin-2-yl)-N-(2-(trifluoromethyl)pyridin-4-yl)-1,3,5-triazin-2-amine methanesulfonic acid salt], the “Increased Weights by Hygroscopy” value [1] was 1.0%, the “Purity after high temperature and high humidity test” value [2] was 99.22% and the Purity before test [2] was 98.82%. For the same molecule, the “AUC(0-t)” value [3, 6] was 42249 ng·h/mL, the “AUC(0-∞)” value [3, 6] was 43976 ng·h/mL and the Cmax [3, 6] was 2102 ng/mL. The “MRT(0-t)” value [3, 6] was 15.0 h, the T1/2 [3, 6] was 9.53 h and the Tmax [3, 6] was 8.80 h. It also gave an AUC(0-inf) [3, 7] of 47400 ng·h/mL, a half-life [3, 7] of 10.4 h and an AUC(0-t) ([3]; male, SD, rat, plasma, po, 50 mg/kg, read-out: AUC(0-t)) of 43900 ng·h/mL. The Cmax ([3]; male, SD, rat, plasma, po, 50 mg/kg, read-out: Cmax) was 1730 ng/mL, the MRT last ([3]; male, SD, rat, plasma, po, 50 mg/kg, read-out: MRT(0-t)) was 16.5 h and the Tmax ([3]; male, SD, rat, plasma, po, 50 mg/kg, read-out: Tmax) was 6.6 h.

For `CC(C)(O)CNc1nc(Nc2ccnc(C(F)(F)F)c2)nc(-c2cccc(C(F)(F)F)n2)n1` [AG-221, Enasidenib], the IC50 (IDH2 (R172K, 40-end)) is listed as 68 nM, the “complete remission rate (CR)” value [4] is listed as “up to 27%” and the “overall response rate (ORR)” value [4] is listed as “up to 41%”. For the same molecule, the “effective patients who insist on the treatment for at least 6 months” value ([4]; effective patients) was 76% and the “effective patients with a stable condition” value ([4]; effective patients) was 44%.

For `CC(C)(C)ONc1nc(Nc2ccnc(C(F)(F)F)c2)nc(-c2cccc(C(F)(F)F)n2)n1.O=C(O)/C=C\C(=O)O` [Maleate (Example 10)], the “Increased Weights by Hygroscopy” value [1] was 2.2%.

For `CC(C)(C)ONc1nc(Nc2ccnc(C(F)(F)F)c2)nc(-c2cccc(C(F)(F)F)n2)n1` [The compound of Formula I, 4-(tert-butoxyamino)-6-(6-(trifluoromethyl)pyridin-2-yl)-N-(2-(trifluoromethyl)pyridin-4-yl)-1,3,5-triazin-2-amine], the “inhibitory activity compared with AG-221 (in words)” value (IDH2 (R172K, 40-end); IDH2 (R172K, 40-end)) was “better inhibitory activity than AG-221”, the IC50 (IDH2 (R172K, 40-end); IDH2 (R172K, 40-end), 80 nM enzyme, 40 μM NADPH, read-out: IC50) was 32 nM and the “half-life (in words)” value [5] was “long half-life”. For the same molecule, the “plasma concentration compared with AG-221 at the same dosage (in words)” value [5] was “higher than AG-221”.

In the case of `CC(C)(C)ONc1nc(Nc2ccnc(C(F)(F)F)c2)nc(-c2cccc(C(F)(F)F)n2)n1.Cl` [The hydrochloride salt (Example 7)], the “Increased Weights by Hygroscopy” value [1] is reported as 0.9%, the “Purity after high temperature and high humidity test” value [2] is reported as 99.62% and the Purity before test [2] is reported as 98.85%. The “AUC(0-t)” value [3] was 48570.9 ng·h/mL, the “AUC(0-∞)” value [3] was 55252.1 ng·h/mL and the Cmax [3] was 1642 ng/mL. The “MRT(0-t)” value [3] was 18.02 h, the T1/2 [3] was 13.67 h and the Tmax [3] was 10.6 h.

With `CC(C)(C)ONc1nc(Nc2ccnc(C(F)(F)F)c2)nc(-c2cccc(C(F)(F)F)n2)n1.CS(=O)(=O)O` [The mesylate (Example 12), 4-(tert-butoxyamino)-6-(6-(trifluoromethyl)pyridin-2-yl)-N-(2-(trifluoromethyl)pyridin-4-yl)-1,3,5-triazin-2-amine methanesulfonic acid salt] the “AUC(0-t)” value [3, 8] was 42249 ng·h/mL, the “AUC(0-∞)” value [3, 8] was 43976 ng·h/mL and the Cmax [3, 8] was 2102 ng/mL. The “MRT(0-t)” value [3, 8] was 15.0 h, the T1/2 [3, 8] was 9.53 h and the Tmax [3, 8] was 8.80 h.

For `CC(C)(C)ONc1nc(Nc2ccnc(C(F)(F)F)c2)nc(-c2cccc(C(F)(F)F)n2)n1.Cc1ccc(S(=O)(=O)O)cc1` [The p-toluenesulfonate (Example 9)], the “Increased Weights by Hygroscopy” value [1] was 0.7%, the “Purity after high temperature and high humidity test” value [2] was 97.63% and the Purity before test [2] was 98.79%.

In the case of `CC(C)(C)ONc1nc(Nc2ccnc(C(F)(F)F)c2)nc(-c2cccc(C(F)(F)F)n2)n1.O=S(=O)(O)O` [The sulfate (Example 8)], the “Increased Weights by Hygroscopy” value [1] is reported as 1.3%, the “Purity after high temperature and high humidity test” value [2] is reported as 93.58% and the Purity before test [2] is reported as 99.30%.
